Measured values reported in patent publication US10487129B2, “Stabilized insulinotropic peptides and methods of use” (Dana-Farber Cancer Institute, Inc., priority 2010, dated 2019).
Positions of bridges follow the written chain, without caps; N, C: chain ends. Non-standard residues stand in square brackets, D forms with d. Residues, ends and D or L forms follow the SMILES beside them. No end group written: not given here. S5 = C=CCCC[C@](C)(N)C(=O)O; Nle = CCCC[C@H](N)C(=O)O

Legend:
chymotrypsin [1] = target: T1, chymotrypsin (Bos taurus, UniProt P00766); assay type: in vitro ADME; design: purchased Sigma; conditions: pH 7
Text: A major limitation of peptides as therapeutics is their susceptibility to rapid proteolytic degradation. […] One of the potential benefits of a covalent crosslinking strategy to enforce peptide α-helicity is shielding of the vulnerable amide bonds from proteolysis. Because proteases require that peptides adopt an extended conformation to hydrolyze amide bonds, the structural constraint afforded by the hydrocarbon staple can render crosslinked peptides protease-resistant.

pepsin = pepsin (Sus scrofa, UniProt P00791); assay: in vitro; assay type: in vitro ADME; conditions: pH 2
Experimental: In vitro proteolytic degradation of structured peptides was measured by LC/MS (Agilent 1200) using the following parameters: 20 μL injection, 0.6 mL flow rate, 15 min run time consisting of a gradient of water (0.1% formic acid) to 20-80% acetonitrile (0.075% formic acid) over 10 min, 4 min wash to revert to starting gradient conditions, and 0.5 min post-time. The DAD signal was set to 280 nm with an 8 nm bandwidth and MSD set to scan mode with one channel at (M+2H)/2, +1 mass units and the other at (M+3H)/3, +1 mass units. Integration of each MSD signal yielded areas under the curve of >10^8 counts. Reaction samples were composed of 5 μL peptide in DMSO (1 mM stock) and 195 μL of buffer consisting of 50 mM phosphate buffer pH 7.4 containing 2 mM CaCl2. Upon injection of the 0 hr time point sample, 2 μL of 50 ng/μL chymotrypsin (Sigma) was added and the amount of intact peptide quantitated by serial injection over time. An internal control of acetylated tryptophan carboxamide at a concentration of 100 μM was used to normalize each MSD data point. A plot of MSD area versus time yielded an exponential decay curve and half-lives were determined by nonlinear regression analysis using Prism software (GraphPad). The assay was also performed using trypsin and pepsin in their appropriate buffer conditions.

[2] = Circular dichroism thermal unfolding, 5-83° C.; assay type: physicochemical
chymotrypsin [3] = target: T1, chymotrypsin; assay: Chymotrypsin proteolysis of gp41-derived HIV-1 fusion inhibitor peptides
Experimental: In vitro proteolytic degradation of structured peptides was measured by LC/MS (Agilent 1200) using the following parameters: 20 μL injection, 0.6 mL flow rate, 15 min run time consisting of a gradient of water (0.1% formic acid) to 20-80% acetonitrile (0.075% formic acid) over 10 min, 4 min wash to revert to starting gradient conditions, and 0.5 min post-time. The DAD signal was set to 280 nm with an 8 nm bandwidth and MSD set to scan mode with one channel at (M+2H)/2, +1 mass units and the other at (M+3H)/3, +1 mass units. […] Reaction samples were composed of 5 μL peptide in DMSO (1 mM stock) and 195 μL of buffer consisting of 50 mM phosphate buffer pH 7.4 containing 2 mM CaCl2. Upon injection of the 0 hr time point sample, 2 μL of 50 ng/μL chymotrypsin (Sigma) was added and the amount of intact peptide quantitated by serial injection over time. An internal control of acetylated tryptophan carboxamide at a concentration of 100 μM was used to normalize each MSD data point. A plot of MSD area versus time yielded an exponential decay curve and half-lives were determined by nonlinear regression analysis using Prism software (GraphPad). The assay was also performed using trypsin and pepsin in their appropriate buffer conditions.

[4] = Circular dichroism melting of gp41 peptides; assay type: physicochemical; conditions: circular dichroism melting profile
Experimental: The alpha-helicity of stapled modified polypeptides was compared to their unmodified counterparts by circular dichroism. CD spectra were obtained on an Aviv spectropolarimeter at 20° C. using the following standard measurement parameters: wavelength, 190-260 nm; step resolution, 0.5 nm; speed, 20 nm/sec; accumulations, 10; response, 1 sec; bandwidth, 1 nm; path length, 0.1 cm. The alpha-helical content of each peptide was calculated by dividing the mean residue ellipticity [θ]222obs by the reported [θ]222obs for a model helical peptide (Forood, B., E. J. Feliciano, and K. P. Nambiar, PNAS, 1993. 90(3): p. 838-842; J. Martin Scholtz, Biopolymers, 1991. 31(13): p. 1463-1470; Lawless, M. K., et al., Biochemistry, 1996. 35(42): p. 13697-13708) or using, for example, the Aviv machine using CDNN software developed by Brohm in order to deduce five different secondary structure fractions (helix, parallel and antiparallel beta-sheet, beta-turn and random coil). Protein Engineering, 1992. 5(3); p. 191-195. Thermal stability is assessed by acquiring circular dichroism spectra across a broad temperature range and determining the melting temperatures for each constrained peptide.

[5] = system: isolated pancreatic islets; assay: Glucose-stimulated insulin release (GSIS) from isolated pancreatic islets; assay type: cell-based, mouse; conditions: 10 nM peptide, 1.67 mM to 16.7 mM glucose, 1 hour at 37° C., insulin ELISA
Experimental: Stock solutions of SAH-Ex and SAH-GLP peptides were generated by dissolving the lyophilized powders in deionized water at 100 μM. The following treatment solutions were made for batch GSIS assays: 1.67 mM glucose, 16.7 mM glucose, 1.67 mM glucose+10 nM peptide, 16.7 mM glucose+10 nM peptide all in 1×KRB buffer, 2 mM CaCl2, 0.05% BSA. Islets isolated from wild-type mouse pancreas were washed 3 times with KRB buffer and 5 islets per experimental tube were incubated in KRB buffer containing 1.67 mM glucose for 30 min at 37° C. Islets were then pelleted and the buffer replaced with the treatment solutions listed above. Each experimental condition was examined in replicates of n=8. After 1 hour incubation at 37° C., islets were pelleted and the supernatants collected for glucose stimulated insulin release measurement. The pellets are solubilized to assess intracellular insulin content to normalize for cell number. Insulin was measured by ELISA using mouse insulin as a standard (Insulin ELISA Kit, cat. 80-INSMS-E01, ALPCO). For the insulin ELISA plots, there is a small increase in the amount of insulin released in response to escalation of the glucose dose from 1.67 mM to 16.7 mM.

pepsin, sequence (P00791 60-385): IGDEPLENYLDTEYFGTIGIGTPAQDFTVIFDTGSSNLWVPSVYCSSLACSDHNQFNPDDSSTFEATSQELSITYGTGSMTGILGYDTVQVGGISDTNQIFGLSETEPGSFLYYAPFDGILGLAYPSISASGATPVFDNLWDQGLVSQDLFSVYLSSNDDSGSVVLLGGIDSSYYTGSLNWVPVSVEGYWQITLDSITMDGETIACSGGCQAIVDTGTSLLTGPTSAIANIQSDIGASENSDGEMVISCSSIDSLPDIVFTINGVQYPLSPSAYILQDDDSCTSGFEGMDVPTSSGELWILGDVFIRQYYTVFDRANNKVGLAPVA

CC[C@H](C)[C@H](NC(=O)[C@H](Cc1ccccc1)NC(=O)[C@H](CC(C)C)NC(=O)[C@H](CCCNC(=N)N)NC(=O)[C@@H](NC(=O)[C@H](C)NC(=O)[C@H](CCC(=O)O)NC(=O)[C@H](CCC(=O)O)NC(=O)[C@H](CCC(=O)O)NC(=O)[C@]1(C)CCCC=CCCC[C@](C)(NC(=O)[C@H](CC(=O)O)NC(=O)[C@H](CO)NC(=O)[C@@H](NC(=O)[C@H](Cc2ccccc2)NC(=O)[C@@H](NC(=O)CNC(=O)[C@H](CCC(=O)O)NC(=O)CNC(=O)[C@@H](N)Cc2c[nH]cn2)[C@@H](C)O)[C@@H](C)O)C(=O)N[C@@H](CO)C(=O)N[C@@H](CCCCN)C(=O)N[C@@H](CCC(N)=O)C(=O)N1)C(C)C)C(=O)N[C@@]1(C)CCCC=CCCC[C@@](C)(C(=O)NCC(=O)NCC(=O)N2CCC[C@H]2C(=O)N[C@@H](CO)C(=O)N[C@@H](CO)C(=O)NCC(=O)N[C@@H](C)C(=O)N2CCC[C@H]2C(=O)N2CCC[C@H]2C(=O)N2CCC[C@H]2C(=O)N[C@@H](CO)C(N)=O)NC(=O)[C@H](CCCCN)NC(=O)[C@H](CC(C)C)NC(=O)[C@H](Cc2c[nH]c3ccccc23)NC1=O (single isomer, unassigned) [SAH-Ex(A, B)]
enhancement in chymotrypsin resistance compared to the singly stapled peptides (chymotrypsin [1]): up to 4 fold | enhancement in chymotrypsin resistance compared to the template peptide (chymotrypsin [1]): 8 fold | enhancement in pepsin resistance compared to the template peptide (pepsin): 13 fold | half-life at 25 μM (pepsin): 2.87 h | slope of temperature melt line [2]: flatter sloped line

CCCC[C@H](NC(=O)[C@H](Cc1c[nH]c2ccccc12)NC(=O)[C@@H](NC(=O)[C@@H](N)CCCC)[C@@H](C)O)C(=O)N[C@@H](CCC(=O)O)C(=O)N[C@@H](Cc1c[nH]c2ccccc12)C(=O)N[C@@H](CC(=O)O)C(=O)N[C@@H](CCCNC(=N)N)C(=O)N[C@@H](CCC(=O)O)C(=O)N[C@H](C(=O)N[C@@H](CC(N)=O)C(=O)N[C@@H](CC(N)=O)C(=O)N[C@@H](Cc1ccc(O)cc1)C(=O)N[C@H](C(=O)N[C@@H](CO)C(=O)N[C@@H](CC(C)C)C(=O)N[C@H](C(=O)N[C@@H](Cc1c[nH]cn1)C(=O)N[C@@H](CO)C(=O)N[C@@H](CC(C)C)C(=O)N[C@H](C(=O)N[C@@H](CCC(=O)O)C(=O)N[C@@H](CCC(=O)O)C(=O)N[C@@H](CO)C(=O)N[C@@H](CCC(N)=O)C(=O)N[C@@H](CC(N)=O)C(=O)N[C@@H](CCC(N)=O)C(=O)N[C@@]1(C)CCCC=CCCC[C@@](C)(C(=O)N[C@@H](CCC(N)=O)C(=O)N[C@@H](CCC(=O)O)C(=O)N[C@@H](CC(C)C)C(=O)N[C@@H](CC(C)C)C(=O)N[C@@H](CCC(=O)O)C(N)=O)NC(=O)[C@H](CC(N)=O)NC(=O)[C@H](CCCCN)NC(=O)[C@H](CCC(=O)O)NC1=O)[C@@H](C)CC)[C@@H](C)CC)[C@@H](C)O)[C@@H](C)CC [SAH-gp41(626-662)(B)] (H-[Nle]TW[Nle]EWDREINNYTSLIHSLIEESQNQ[S5]EKN[S5]QELLE-NH2; staple 28-32; N-terminus assumed)
half-life (chymotrypsin [3]): 1.28 h

C=CCCC[C@](C)(NC(=O)[C@H](CC(N)=O)NC(=O)[C@H](CCCCN)NC(=O)[C@H](CCC(=O)O)NC(=O)[C@](C)(CCCC=C)NC(=O)[C@H](CCC(N)=O)NC(=O)[C@H](CC(N)=O)NC(=O)[C@H](CCC(N)=O)NC(=O)[C@H](CO)NC(=O)[C@H](CCC(=O)O)NC(=O)[C@H](CCC(=O)O)NC(=O)[C@@H](NC(=O)[C@H](CC(C)C)NC(=O)[C@H](CO)NC(=O)[C@H](Cc1c[nH]cn1)NC(=O)[C@@H](NC(=O)[C@H](CC(C)C)NC(=O)[C@H](CO)NC(=O)[C@@H](NC(=O)[C@H](Cc1ccc(O)cc1)NC(=O)[C@H](CC(N)=O)NC(=O)[C@H](CC(N)=O)NC(=O)[C@@H](NC(=O)[C@H](CCC(=O)O)NC(=O)[C@](C)(CCCC=C)NC(=O)[C@H](CC(=O)O)NC(=O)[C@H](Cc1c[nH]c2ccccc12)NC(=O)[C@H](CCC(=O)O)NC(=O)[C@](C)(CCCC=C)NC(=O)[C@H](Cc1c[nH]c2ccccc12)NC(=O)[C@@H](NC(=O)[C@@H](N)CCCC)[C@@H](C)O)[C@@H](C)CC)[C@@H](C)O)[C@@H](C)CC)[C@@H](C)CC)C(=O)N[C@@H](CCC(N)=O)C(=O)N[C@@H](CCC(=O)O)C(=O)N[C@@H](CC(C)C)C(=O)N[C@@H](CC(C)C)C(=O)N[C@@H](CCC(=O)O)C(N)=O [UAH-gp41(626-662)(A,B)] (H-[Nle]TW[S5]EWD[S5]EINNYTSLIHSLIEESQNQ[S5]EKN[S5]QELLE-NH2; N-terminus assumed)
half-life (chymotrypsin [3]): 0.6 h | protection from chymotrypsin proteolysis, result in words (chymotrypsin [3]): does not confer significant protection | Tm [4]: 27 °C

GLP1: Glucagon-like Peptide-1, insulin secretagogue (HAEGTFTSDVSSYLEGQAAKEFIAWLVKGR; ends and bridges not checked; UniProt P01275 98-127, looked up)
glucose-stimulated insulin release (GSIS) [5]: substantial increase in GSIS
